# According to US20220079952A1, “Uses of Radiation and Benzodiazepine Derivatives in Cancer Therapies” (Emory University, priority 2019, published 2022):
# Assays:
# A375 cells = experiment: Melanoma cell viability, 48 hours treatment, A375; type: cell-based, human; conditions: for effect on cell viability: A375; for IC50: Homo sapiens, A-375, A375, 48 hours, read-out: IC50, reduction in cell viability
# Method: (§1) The electrophysiology whole-cell patch clamp experiments occur within a minute. […] To determine their effect on melanoma cell survival, A375 and B16F10 were treated with QH-II-066, KRM-II-08, or diazepam for 48 hours.
# B16F10 cells = experiment: Melanoma cell viability, 48 hours treatment, B16F10; type: cell-based, murine; conditions: for effect on cell viability: B16F10; for IC50: Mus musculus, B16-F10, B16F10, 48 hours, read-out: IC50, reduction in cell viability
# Method: as §1
# GABAAR [1] = experiment: Whole-cell patch clamp electrophysiology in A375 melanoma cells; type: cell-based, human; conditions: for mode of action at GABAAR from electrophysiology: A375 and B16F10 cells; for EC50: read-out: EC50, enhancement of the effect of GABA, [GABA]=1 μM, benzodiazepine 0-10 μM
# Method: (§2) GABAAR is an anion (Cl—) channel that changes the transmembrane potential of cells, either depolarizing or hyperpolarizing depending upon channel directionality and activity of other membrane transport protein. To establish autonomous expression of GABAAR subunits in melanoma cell lines results in assembly of a functional ligand-dependent channel, electrophysiological testing was performed in human melanoma (A375) and murine (B16F10) lines. Patch clamp currents were recorded for A375 and B16F10. […] A fully functional benzodiazepine binding site requires assembly of a GABAAR with a canonical αβαβγ subunit stoichiometry.
# (§3) Two benzodiazepines were tested (QH-II-066 and KRM-II-08). QH-II-066 and KRM-II-08 differ in having H and F at R2′ of the benzene ring of benzodiazepine, respectively.
# GABAAR [2] = experiment: Whole-cell patch clamp electrophysiology in B16F10 melanoma cells; type: cell-based, murine; conditions: for EC50: read-out: EC50, enhancement of the effect of GABA, [GABA]=1 μM, benzodiazepine 0-10 μM
# Method: as §2, §3
# [3] = tested on: medulloblastoma cancer cells; conditions: sustained incubation; cited from earlier work
# A375 and B16F10 cells = experiment: p53 expression and mitochondrial transmembrane potential in melanoma cells; type: cell-based, human and murine
# Method: Changes induced by the benzodiazepine as a consequence of creating a net efflux of chloride anion, included an upregulation of TP53 and a depolarization of the mitochondrial transmembrane potential, ultimately resulting in apoptosis via the intrinsic mitochondria-mediated pathway. Thus, Experiments were performed to determine if benzodiazepine elicited a similar response in A375 and B16F10 cells.
# B16F10-GP tumor = experiment: B16F10-GP syngeneic melanoma murine model, bilateral flank tumors, tumor volume; type: in vivo, C57BL/6 mice
# Method: The clinical observation of improved outcome for RT-ICI was analyzed using a murine model. B16F10-GP cells (0.5×10^5) were implanted in both right and left flanks of C57BL/6 mice (FIG. 1A). A single dose of radiation at 10 Gy was delivered to the right flank only using a 0.5 cm bolus material, on Day 10 after implanting the melanoma cells. Day 10 was chosen to allow for growth of tumor cells in flanks to the point where they became palpable. […] Anti-PD-L1 was given by intraperitoneal injection every third day.
# Since melanoma cell viability in vitro was impaired by benzodiazepines QH-II-066 and KRM-II-08, experiments were performed to determine if benzodiazepine had anti-tumor activity in vivo. […] Given that immune checkpoint inhibitor efficacy is enhanced by radiation therapy, experiments were performed to determine whether RT combined with QH-II-066 synergize to control ipsilateral and abscopal tumor volume using the B16F10-GP syngeneic melanoma murine model. B16F10-GP melanoma cells were implanted (0.5×10^5) in both right and left flanks of C57BL/6 mice (FIG. 3B). A single dose of radiation (either 10 or 5 Gy) was delivered to the right flank on Day 10 after implanting of B16F10-GP cells. […] There was no difference when using different radiation doses (10 or 5 Gy).
# Having observed that QH-II-066 could sensitize a melanoma tumor to radiation and that expression of genes with roles in the cytokine:cytokine receptor interaction pathway was enhanced, experiments were performed to determine if QH-II-066 was capable of potentiating the programmed death ligand 1 immune checkpoint inhibitor (anti-PD-L1). B16F10-GP melanoma cells were implanted in both the right and left flanks of C57BL/6 mice. Day 10 in both the right and left flanks injected i.p.: (i) QH-II-066 (10 mg/kg), then every day for seven days; (ii) anti-PD-L1 (200 μg), then every third day thereafter; (iii) QH-II-066 (10 mg/kg) and anti-PD-L1 (200 μg) at time and frequency detailed for monotherapy treatment groups (FIG. 5).
# Having observed potentiation of radiation and anti-PD-L1 by QH-II-066 individually, there might be a more significant tumor response if we administered a ‘combo’ consisting of radiation (5 Gy), anti-PD-L1, plus QH-II-066. As before, B16F10-GP melanoma cells were implanted in both the right and left flanks of C57BL/6 mice (FIG. 5). The following experimental groups were tested: (i) vehicle alone control; (ii) QH-II-066 alone (10 mg/kg); (iii) a single morning dose of radiation (5 Gy) delivered to the right flank, followed by evening dose of QH-II-066 (10 mg/kg); (iv) anti-PD-L1 plus QH-II-066; (v) a single morning dose of radiation (5 Gy) delivered to the right flank, followed by an evening dose of anti-PD-L1; (vi) a triple or combo therapy, consisting of a single morning dose of radiation (5 Gy) delivered to the right flank, followed by evening doses of anti-PD-L1 plus QH-II-066. After initial i.p. injection of QH-II-066 on Day 10, QH-II-066 was injected i.p. every day for seven days; while anti-PD-L1 was injected i.p. every third day thereafter.
# B16F10-GP cell line was grown in Dulbecco's Modified Eagle's medium (DMEM) supplemented with 10% Fetal Bovine Serum, 100 U/mL penicillin and 100 μg/mL streptomycin, 2 mM glutamine. Cells were cultured at 37° C. with 5% CO2.
# B16F10-GP melanoma cells ([…]) were implanted in matrigel (25%) on right and left flank of 6-8 week old female C57BL/6 mice (Jackson Laboratories, Bar Harbor, Me.). […]
# [4] = tested on: CD8+ T cells in B16F10-GP tumors; experiment: Immunophenotyping of tumor infiltrating lymphocytes of bilateral B16F10-GP tumors by flow cytometry; type: in vivo, C57BL/6 mice
# Method: Mice were sacrificed and tumor infiltrating lymphocytes (TILs) were isolated, stained, and analyzed using flow cytometry. For cytokine analysis, TILs were stimulated with GP33 peptide for 6 hours in presence of GolgiStop™ and GolgiPlug™ and analyzed using flow cytometry. Tumor weight and Lymphocyte number per gram tumor.
# To determine whether these apparent synergistic effects were mediated by an enhanced immune response, immunophenotyping of bilateral tumors was performed. […] (FIG. 4A-4E).
# [5] = non-human primates, previously tested; cited from earlier work
SMILES,effect on cell viability (A375 cells),effect on cell viability (B16F10 cells),mode of action at GABAAR from electrophysiology (GABAAR [1]),EC50 (GABAAR [1]; A375 cells),EC50 (GABAAR [2]),IC50 (A375 cells),IC50 (B16F10 cells),effectiveness in impairing cell viability versus diazepam [3],further results
"CC(=O)[C@H]1CC[C@H]2[C@@H]3CC[C@H]4C[C@H](O)CC[C@]4(C)[C@H]3CC[C@]12C [Allopregnanolone, allopregnanolone, reference compound]",does not impair,does not impair,,,,,,,
"NCCCC(=O)O [GABA, gamma-aminobutyric acid, reference compound]",,,,,,,,,"maximal response to GABA (current) (GABAAR [1]; A375 cells, patch clamp, n=8): −230±41 pA; maximal response to GABA (current) (GABAAR [2]; patch clamp, n=6): −430±70 pA"
"C#Cc1ccc2c(c1)C(c1ccccc1F)=NCC(=O)N2C [KRM-II-08, 7-ethynyl-5-(2-fluorophenyl)-1-methyl-1,3-dihydro-2H-benzo[e][1,4]diazepin-2-one]",,,GABAAR positive allosteric modulators,1.7 ± 0.2 µM,0.2 ± 0.1 µM,1.33 ± 0.08 µM,6.1 ± 0.8 µM,more than an order of magnitude improved effectiveness,
"C#Cc1ccc2c(c1)C(c1ccccc1)=NCC(=O)N2C [QH-II-066, 7-ethynyl-1-methyl-5-phenyl-1,3-dihydro-2H-benzo[e][1,4]diazepin-2-one]",,,GABAAR positive allosteric modulators,0.9 ± 0.4 µM,0.16 ± 0.09 µM,2.7 ± 0.2 µM,8.2 ± 0.9 µM,more than an order of magnitude improved effectiveness,"expression of p53 (A375 and B16F10 cells): enhanced expression of p53; time to depolarization of the mitochondrial transmembrane potential (A375 and B16F10 cells): ≤ 10 min; ipsilateral and abscopal tumor effect, combo of radiation, anti-PD-L1 and QH-II-066 (B16F10-GP tumor; 5 Gy right flank Day 10, then anti-PD-L1 200 μg every third day plus QH-II-066 10 mg/kg daily 7 days): complete tumor regression in some animals; B16F10-GP tumor growth, monotherapy dose response (B16F10-GP tumor; 10, 25 and 50 mg/kg i.p. daily for a week, negligible difference between 25 and 50 mg/kg): dose-dependent reduction; anti-tumor effect on ipsilateral and contralateral tumor, combination with radiation therapy (B16F10-GP tumor; 10 or 5 Gy right flank Day 10, then QH-II-066 10 mg/kg daily 7 days): strongly synergistic anti-tumor effect; tumor volume, dual therapy QH-II-066 and anti-PD-L1 (B16F10-GP tumor; QH-II-066 10 mg/kg daily 7 days plus anti-PD-L1 200 μg every third day): most significant reduction in tumor volume; tumor volume, monotherapy (B16F10-GP tumor; QH-II-066 10 mg/kg i.p. daily 7 days or anti-PD-L1 200 μg i.p. every third day, from Day 10): comparable reductions in tumor volume; CD8+ T cell infiltration of ipsilateral tumor, radiation in combination with QH-II-066 ([4]; 10 or 5 Gy plus QH-II-066, compared to vehicle): enhanced infiltration of CD8+ T cells; CD8+ T cell infiltration of tumor, QH-II-066 alone ([4]; QH-II-066 10 mg/kg alone, compared to vehicle): did not induce CD8+ T cell infiltration; antigen-specific, poly-functional T cells (expressing IFN-γ and TNF-α) in ipsilateral and contralateral tumors ([4]; ipsilateral radiation therapy + systemic QH-II-066): significant increase; adverse side effects or toxicity [5]: without any adverse side effects or toxicity"
"CN1C(=O)CN=C(c2ccccc2)c2cc(Cl)ccc21 [diazepam, reference compound]",no effect,no effect,,,,,,,
